The structures appear in SMILES notation. Counter-ions that a name gives are not always drawn.

Our source for the melting point values is patent US6753337B2, “Alkynyl containing hydroxamic acid compounds as matrix metalloproteinase/tace inhibitors” (Wyeth Holdings Corporation, priority 1999, dated 2004).

Regarding `CC#CCOc1ccc(S(=O)(=O)C2(C(=O)NO)CCN(Cc3ccc(Cl)c(Cl)c3)CC2)cc1` (as salt: HCl) [Example 10, 4-(4-But-2-ynyloxy-benzenesulfonyl)-1-(3,4-dichloro-benzyl)-piperidine-4-carboxylic acid hydroxyamide], the melting point – broadly, the temperature, or range, at which the solid turns liquid – is 213 °C.

`CCCCCC#CCOc1ccc(S(=O)(=O)C2(C(=O)NO)CCN(Cc3ccc(Br)cc3)CC2)cc1` (as salt: hydrochloride) [Example 6, 1-(4-Bromo-benzyl)-4-(4-oct-2-ynyloxy-benzenesulfonyl)-piperdine-4-carboxylic acid hydroxyamide] gave a melting point of 140 °C.
